Calls of active or inactive are those of the source. No cut-off for these calls is given here.

As a reminder, the IC50 is the concentration that inhibits the measured activity by half. Higher therefore signals weaker potency.

Mu-type opioid receptor, sequence (P97266 whole entry): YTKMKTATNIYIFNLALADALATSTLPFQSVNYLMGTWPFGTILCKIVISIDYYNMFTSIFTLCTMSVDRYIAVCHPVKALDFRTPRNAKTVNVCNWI
Mu-type opioid receptor (Cavia porcellus), sequence (P97266 whole entry): as above

One test has as its target Mu-type opioid receptor (Cavia porcellus) (UniProt P97266). Put plainly: Mu opioid receptor agonist activity was determined by inhibition of electrically stimulated myenteric plexus in guinea pig ileum.
Settings: not given
The format is functional, tissue-based.
`CSCC[C@H](NC(=O)[C@H](Cc1ccccc1)NC(=O)CNC(=O)[C@@H](C)NC(=O)[C@@H](N)Cc1ccc(O)cc1)C(N)=O` returned a Relative potency of 329.

The compound `CC1C2(C)CCN(C)C1(C(N)=O)Cc1ccc(O)cc12` (single isomer, unassigned; (-)) [listing 1 of 2 here] came in with a Relative potency of 0.02.

With `CC1C2Cc3ccc(O)cc3C1(C)CC(C(N)=O)N2C` (single isomer, unassigned; (-)) [listing 1 of 2 here], the Relative potency came out at 0.009.

`CSCC[C@@H](NC(=O)[C@H](Cc1ccccc1)NC(=O)CNC(=O)CNC(=O)C1CC2(C)c3cc(O)ccc3CC(C2C)N1C)C(N)=O` (some centres not stated) returned a Relative potency of 0.007.

The next test has the same target. The test is described as follows: Mu opioid receptor agonist activity was determined by inhibition of electrically stimulated myenteric plexus in guinea pig ileum; Inactive, weak antagonism with agonist morphine PA2 of <6. The format is functional, tissue-based. The settings on record: filed as antagonist.
`CSCC[C@@H](NC(=O)[C@H](Cc1ccccc1)NC(=O)CNC(=O)CNC(=O)C12Cc3ccc(O)cc3C(C)(CCN1C)C2C)C(N)=O` (single isomer, unassigned; (-)): the Relative potency result is “Partial antagonist”.

For another test the target is unchanged. Put plainly: Mu opioid receptor agonist activity was determined by inhibition of electrically stimulated myenteric plexus in guinea pig ileum; Inactive. The format is functional, tissue-based.
Settings: not given
As for `CC1C2(C)CCN(C)C1(C(N)=O)Cc1ccc(O)cc12` (configuration not stated), the Relative potency entry was “inactive”.

With `CC1C2(C)CCN(C)C1(C#N)Cc1ccc(O)cc12` (racemic), the Relative potency result is “inactive”.

`CC1C2Cc3ccc(O)cc3C1(C)CC(C(N)=O)N2C` (single isomer, unassigned; (+)): the Relative potency result is “inactive”.

Consider `CSCC[C@@H](NC(=O)[C@H](Cc1ccccc1)NC(=O)CNC(=O)CNC(=O)C12Cc3ccc(O)cc3C(C)(CCN1C)C2C)C(N)=O` (single isomer, unassigned; (+)), for which the Relative potency entry is “inactive”.

Consider `CSCC[C@@H](NC(=O)[C@H](Cc1ccccc1)NC(=O)CNC(=O)CNC(=O)C1CC2(C)c3cc(O)ccc3CC(C2C)N1C)C(N)=O` (single isomer, unassigned; (+)), for which the Relative potency entry was “inactive”.

A further test has as its target Mu-type opioid receptor (Cavia porcellus, UniProt P97266). Put plainly: Mu opioid receptor agonist activity as inhibition of electrically stimulated mysenteric plexus in guinea pig ileum. The format is functional, tissue-based.
Settings: not given
In turn, `CSCC[C@H](NC(=O)[C@H](Cc1ccccc1)NC(=O)CNC(=O)[C@@H](C)NC(=O)[C@@H](N)Cc1ccc(O)cc1)C(N)=O` yielded an IC50 of 17.4 nM.

In turn, `CC1C2Cc3ccc(O)cc3C1(C)CC(C(N)=O)N2C` (single isomer, unassigned; (-)) [listing 2 of 2 here] showed an IC50 of 6090 nM.

With `CC1C2Cc3ccc(O)cc3C1(C)CC(C#N)N2C` (single isomer, unassigned; form 1), the IC50 was 510 nM.

`C[C@H]1[C@@H]2Cc3ccc(O)cc3[C@]1(C)CCN2C` [METAZOCINE] displayed an IC50 of 94 nM.

`CC1C2(C)CCN(C)C1(C(N)=O)Cc1ccc(O)cc12` (single isomer, unassigned; (-)) [listing 2 of 2 here] had a concentration for half-maximal inhibition (IC50) of 2820 nM.

`CC1C2Cc3ccc(O)cc3C1(C)CC(C#N)N2C` (single isomer, unassigned; form 2): the IC50 worked out at 510 nM.

In turn, `CSCC[C@H](NC(=O)[C@H](Cc1ccccc1)NC(=O)CNC(=O)CNC(=O)C1CC2(C)c3cc(O)ccc3CC(C2C)N1C)C(N)=O` (some centres not stated) registered an IC50 of 7970 nM.

For the origin of these results see ChEMBL document CHEMBL1121981, “Synthesis and biological evaluation of a metazocine-containing enkephalinamide. Evidence for nonidentical roles of the tyramine moiety in opiates and opioid peptides” (J Med Chem, 1982).
